Results: US20240301409A1, “Chemically Modified Small Activating RNA” (RACTIGEN THERAPEUTICS, priority 2021, published 2024)
Entries after “also recorded” stand apart in the source; their conditions may differ. Read-outs that look alike come from different tables or passages of the source. Oligonucleotides are written 5' to 3', each unit as a sugar letter and its base; * is a phosphorothioate linkage, no mark a phosphodiester; rarer units and linkages stand in square brackets, end groups in braces. Plain capitals give the bases only. d = 2'-deoxy (DNA); m = 2'-O-methyl; r = 2'-OH (RNA); f = 2'-fluoro

Assays:
[1] = target: T1, RNase A (Bos taurus, UniProt P61823)
T1 sequence (P61823 27-150): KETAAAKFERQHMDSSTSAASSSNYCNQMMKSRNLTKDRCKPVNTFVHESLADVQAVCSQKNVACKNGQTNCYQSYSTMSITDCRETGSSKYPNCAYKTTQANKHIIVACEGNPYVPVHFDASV

[2] = tested on: Ku-7-LG cells; experiment: Cellular proliferation assay (CCK8) in Ku-7-LG cells; type: cell-based, human; conditions: 10 nM, 72 hours
Description: Ku-7-LG cells were transfected with the indicated saRNA at 10 nM for 3 days. […] The closer the luciferase value is to the control group, the lower the probability of off-target effects of saRNA is. Control and dsCon2 were blank transfection and double-stranded scramble RNA transfection, respectively. The value of the ordinate represents the mean±SD of two repeated treatments.
(§1) After the transfection, the number of viable cells was detected with a CCK8 kit, and plotted as the percentage of the blank control treatment group. […] A transfection sample without oligonucleotide served as a blank control. Non-specific duplex (dsCon) transfected sample served as a negative control. Data are presented as mean±SD of at least two independent experiments. The values below the dashed line indicate stronger growth inhibitory activity compared to duplex Rag1-40 without chemical modification.
(§2) Human bladder cancer cells Ku-7-LG (ATCC), J82 (ATCC) and T24 (ATCC) were cultured in McCoy medium (Gibco) comprising 10% calf serum (Sigma-Aldrich) and 1% penicillin/Streptomycin (Gibco). Cells were cultured at 37° C. under 5% CO2. Ku-7-LG, J82 and T24 cells were plated into 12-well plates at 10×10^4 cells per well, transfected with the small RNA at a concentration of 10 nM (unless otherwise specified) for three days, using RNAiMax (Invitrogen, Carlsbad, CA) according to the manufacturer's instructions. Two replicate wells were set for each treatment.
(§3) Cells were plated in a 96-well plate at 2˜4×10^3 cells/well, cultured overnight, and transfected with the oligonucleotide duplexes. Three days after transfection, CCK8 (Dojindo) was used to detect cellular proliferation following manufacturer's instructions. The experimental steps are briefly described as follows: 10 μL of CCK8 solution was added to each well, incubated at 37° C. for 1 hour, and then the absorbance at 450 nm was measured using a microplate reader.
(§4) It is known that p21 induction by saRNA is that a variety of tumor suppressor factors such as p21 protein suppress the proliferation of cancer cells. To evaluate the effect of chemically modified saRNAs on the function of cancer cells, cells (Ku-7-LG and T24) were transfected with 10 nM unmodified and modified saRNAs for 72 hours, and the cellular proliferation was determined by CCK8. […] Furthermore, there was a correlation between RNA activating activity (FIGS. 7A-7B) and suppression of cellular proliferation activity (FIGS. 8A-8B). Strong p21 activators are usually also strong cytostatics.

[3] = tested on: Rag1-40 target sequence in the 3′ UTR of firefly luciferase, COS-1 cells
[4] = tested on: p21 gene; experiment: p21 mRNA expression by RT-qPCR in T24 cells; type: cell-based, human; conditions: 10 nM, 72 hours, compared with unmodified Rag1-40 unless worded otherwise
Description: (§5) Ku-7-LG and T24 cells were transfected with the indicated saRNA at a final concentration of 10 nM for 3 days. After transfection, the RNA was extracted with the Qiagen RNeasy kit. After reverse transcription, the ABI 7500 fast real-time PCR system was used for qPCR amplification. The GAPDH gene was amplified as an internal reference. […] Dashed line indicates duplex Rag1-40 with no chemical modification in comparison, and the values above the line indicate stronger activity. The control was blank transfection without oligonucleotide. dsCon2 is transfected with a double-stranded scramble RNA. The value of the ordinate represents the mean±SD of 2 repeated treatments.
(§6) The control and dsCon2 were blank transfection and scramble dsRNA transfection, respectively. The values in the ordinate represent the mean±SD of 2 repeated treatments.
as §2
(§7) After transfection, the medium was discarded and to each well 500 μl cell lysate was added and incubated at room temperature for 5 minutes. RNA was extracted with the Qiagen RNeasy kit, and after reverse transcription, qPCR analysis was performed on the ABI 7500 Fast Real-time PCR system (Applied Biosystems). Each sample was amplified in 3 replicate wells.
(§8) The PCR reaction conditions are: 95° C. for 30 seconds, 95° C. for 5 seconds, 60° C. for 30 seconds, and 40 cycles of amplification. The GAPDH gene was amplified as an internal reference at the same time. p21 was amplified with the p21F1/R1 primer pair, and the specific sequences of the amplification primers are shown in Table 1.
(§9) In order to calculate the expression value (Erel) of p21 (target gene) of a saRNA transfection sample relative to the control treatment, Formula 1 is used to input the Ct values of the target gene and the internal reference gene for calculation.
(§10) wherein, CtTm is the Ct value of the target gene from the control treatment sample; CtTs is the Ct value of the target gene from the saRNA treated sample; CtRm is the Ct value of the internal reference gene from the control treatment sample; and CtRs is the Ct value of the internal reference gene from the saRNA treated sample.
(§11) The main purpose of introducing chemical modifications to regulatory oligonucleotides of a gene is to improve their pharmaceutical properties, including enhancing in vivo stability and mitigating off-target effects (e.g., sequence-dependent targeting of unrelated genes, sequence-dependent or independent immune stimulation), while maintaining their gene regulatory capacity (gene knockdown or activation). To assess the effect of chemical modification on the RNAa activity of saRNA on the p21 gene, 10 nM unmodified (Rag1-40) and modified (Rag1-40-1 to Rag1-40-34) duplexes were transfected into Ku-7-LG and T24 cells, respectively. After 72 hours, the mRNA expression level of p21 was assessed by RT-qPCR. All duplexes induced p21 mRNA expression in all […] at least double that of the control.
(§12) In order to further evaluate the expression level of p21 mRNA after the different durations of treatment by the chemically modified saRNA duplexes, two saRNAs (RAG1-40-31 and RAG1-40-53) were randomly selected from the above chemically modified saRNA duplexes for detection. RAG1-40-31 and RAG1-40-53 were transfected into Ku-7-LG and T24 cells at a final concentration of 10 nM, for 1, 2, 3, 4, 7 and 9 days, respectively. Each treatment was set up in duplicate. […]

[5] = tested on: T24 cells; experiment: Cellular proliferation assay (CCK8) in T24 cells, alone and combined with Mitomycin C or valrubicin; type: cell-based, human; conditions: T24 cells, 10 nM, 72 hours, CCK8
Description: as §1
T24 cells were transfected with RAG1-40-31 at concentrations of 0.1, 0.5, 1, 5, 10, 25 and 50 nM for 24 hours, and then Mitomycin C was added at concentrations of 1, 10, 100, 1000 and 10000 nM. The combined treatment was carried out with concentrations in pairs. After treatment, the cellular proliferation was detected by CCK8 kit. FIGS. 16A-16B show the relative proliferation proportion of T24 cells after the combined treatment with chemically modified saRNA RAG1-40-31 and valrubicin. […] Control and DMSO are the blank transfection control and the solvent for dilution control, respectively.
T24 cells were transfected with RAG1-40-31 at concentrations of 0.1, 0.5, 1, 5, 10, 25 and 50 nM for 24 hours, and then valrubicin at concentrations of 1, 10, 100, 1000 and 10000 nM was added. The combined treatment was carried out with concentrations in pairs. After treatment, the cellular proliferation was detected by CCK8 kit.
as §2, §3, §4

[6] = tested on: p21 gene; experiment: p21 mRNA expression by RT-qPCR in Ku-7-LG cells; type: cell-based, human; conditions: 10 nM, 72 hours, compared with unmodified Rag1-40 unless worded otherwise
Description: as §5, §6, §2, §7, §8, §9, §10, §11, §12

[7] = tested on: Rag1-40 target sequence in the 3′ UTR of firefly luciferase, COS-1 cells; experiment: Analysis of off-target effects (pOff-Target dual luciferase reporter in COS-1 cells); conditions: lysed 48 hours after transfection, luciferase activity

## Rag1-40-11: saRNA duplex: sense fCfCAACUCAUUCUCCAAGfUfC (SEQ ID NO 14); antisense fUmAfCfUfUmGmGmAmGmAmAfUmGmAmGfUfUmGmGfCmA (SEQ ID NO 8) (sense fCfCrArArCrUrCrArUrUrCrUrCrCrArArGfUfC)
[1]
  degradation of duplex at 96 hours: little or no signs of degradation
[2]
  suppression of cellular proliferation, in words: negatively affects proliferation suppression activity
[3]
  off-target effect compared to unmodified Rag1-40, in words: completely inhibited
[4]
  RNA activation activity (p21 mRNA), in words: reduced activity
[5]
  suppression of cellular proliferation, in words: negatively affects proliferation suppression activity

## Rag1-40-16: saRNA duplex: sense fCfCAACUCAUUCUCCAAGfUfC (SEQ ID NO 14); antisense fUactfUGGAGAAfUGAGfUfUGG*fC*A (SEQ ID NO 13) (sense CCAACUCAUUCUCCAAGUC; antisense UACTUGGAGAAUGAGUUGGCA; 2'-F, DNA residues, phosphorothioate modifications; modified_base (1)..(19) (1,2,18,19)=2′-fluoro; modified_base (1)..(17) (1,2,9,13,14,17)=2′-fluoro; (1)..(21) (1,5,6,7,8,9,10,11,12,13,14,15,1,61,7,18,19,20, 21)=RNA; (2)..(4) (2,3,4)=DNA; modified_base (16)..(18) (16,17,18)=phosphorothioate (PS) backbone modification)
[1]
  degradation of duplex at 96 hours: little or no signs of degradation
[2]
  suppression of cellular proliferation, in words: weakens the activity of the saRNA duplex to suppress cellular proliferation
[3]
  off-target effect compared to unmodified Rag1-40, in words: increased off-target effects
[5]
  suppression of cellular proliferation, in words: weakens the activity of the saRNA duplex to suppress cellular proliferation

## Rag1-40-32: saRNA duplex: sense fCfCAACUCAUUCUCCAAG*U*C (SEQ ID NO 16); antisense fUactfUGGAGAAfUGAGfUfUGG*fC*A (SEQ ID NO 13) (sense fCfCrArArCrUrCrArUrUrCrUrCrCrArArG*rU*rC; antisense fUdAdCdTfUrGrGrArGrArAfUrGrArGfUfUrGrG*fC*rA)
[6]
  RNA activation activity (p21 mRNA), in words: attenuated activity; also recorded: weak RNA activating activity
[1]
  degradation of duplex at 96 hours: little or no signs of degradation
[2]
  suppression of cellular proliferation, in words: weak cellular proliferation inhibitory activity; also recorded: weakens the activity of the saRNA duplex to suppress cellular proliferation
[3]
  off-target effect compared to unmodified Rag1-40, in words: increased off-target effects
[4]
  RNA activation activity (p21 mRNA), in words: reduced activity; also recorded: attenuated activity
[5]
  suppression of cellular proliferation, in words: weakens the activity of the saRNA duplex to suppress cellular proliferation

## Rag1-40-33: saRNA duplex: sense CCAACUCAUUCUCCAAGUC (SEQ ID NO 17); antisense UactUGGAGAAUGAGUUGGCA (SEQ ID NO 18) (antisense rUdAdCdTrUrGrGrArGrArArUrGrArGrUrUrGrGrCrA; sense: unmodified RNA)
[6]
  RNA activation activity (p21 mRNA), in words: attenuated activity; also recorded: weak RNA activating activity
[7]
  off-target effect compared to unmodified Rag1-40, in words: mitigated or similar off-target effects
[2]
  suppression of cellular proliferation, in words: weak cellular proliferation inhibitory activity
[4]
  RNA activation activity (p21 mRNA), in words: reduced activity; also recorded: attenuated activity

## Rag1-40-34: saRNA duplex: sense CCAACUCAUUCUCCAAGUC (SEQ ID NO 17); antisense UacttggAGAAUGAGUUGGCA (SEQ ID NO 19) (antisense rUdAdCdTdTdGdGrArGrArArUrGrArGrUrUrGrGrCrA; sense: RNA, phosphodiester; further chemistry not fully specified)
[6]
  RNA activation activity (p21 mRNA), in words: attenuated activity; also recorded: weak RNA activating activity
[7]
  off-target effect compared to unmodified Rag1-40, in words: mitigated or similar off-target effects
[2]
  suppression of cellular proliferation, in words: weak cellular proliferation inhibitory activity
[4]
  RNA activation activity (p21 mRNA), in words: reduced activity; also recorded: attenuated activity
